Source: publication PMC10054465, “Design, Synthesis, and Antiviral Activities of New Benzotriazole-Based Derivatives” (Pharmaceuticals, 2023)

system: BVDV; assay: microbe, parasite or virus in culture; type: cell-based; details: Bovine viral diarrhea virus isolates and strains, MDBK, read-out: BVDV EC50

SMILES	EC50 [µM]
COc1ccc(C(=O)Nc2ccc(Cn3nnc4ccccc43)cc2)cc1 [86c]	3
C[C@@]1(O)[C@H](O)[C@@H](CO)O[C@H]1n1cnc2c(=O)[nH]c(N)nc21 [NM108, 2′-C-methyl-guanosine, reference compound]	1.5
NC(=O)c1ncn([C@@H]2O[C@H](CO)[C@@H](O)[C@H]2O)n1 [Ribav, ribavirin, reference compound]	12

same assay, conditions: Bovine viral diarrhea virus isolates and strains, MDBK, read-out: BVDV EC50, second value after slash

SMILES	EC50 [µM]
NC(=O)c1ncn([C@@H]2O[C@H](CO)[C@@H](O)[C@H]2O)n1 [Ribav, ribavirin, reference compound]	18

system: not listed separately; assay: Cytotoxicity in mock-infected BHK-21 monolayers (MTT); details: Syrian hamster (Mesocricetus auratus), BHK-21 cell monolayers, mock-infected

SMILES	CC50 [µM]
COc1ccc(C(=O)Nc2ccc(Cn3nnc4ccccc43)cc2)cc1 [86c]	95
C[C@@]1(O)[C@H](O)[C@@H](CO)O[C@H]1n1cnc2c(=O)[nH]c(N)nc21 [NM108, 2′-C-methyl-guanosine, reference compound]	> 100

system: YFV; assay: microbe, parasite or virus in culture; type: cell-based; details: Yellow fever virus, BHK-21, read-out: YFV EC50

SMILES	EC50 [µM]
C[C@@]1(O)[C@H](O)[C@@H](CO)O[C@H]1n1cnc2c(=O)[nH]c(N)nc21 [NM108, 2′-C-methyl-guanosine, reference compound]	1

system: CVB5; assay: microbe, parasite or virus in culture; type: cell-based, human enterovirus B (coxsackievirus B5); details: not given

SMILES	antiviral activity (in words)
CCC(=O)Nc1cccc(Cn2nnc3cc(Cl)c(Cl)cc32)c1 [36a]	no antiviral activity
CC(=O)Nc1cccc(Cn2nnc3cc(Cl)c(Cl)cc32)c1 [35a]	no antiviral activity

same assay, conditions: Enterovirus B, CVB5, Vero 76, read-out: CVB5 EC50

SMILES	EC50 [µM]
Cc1cc(CCCOc2c(C)cc(-c3noc(C(F)(F)F)n3)cc2C)on1 [Plec, pleconaril, reference compound]	0.005 ± 0.002
Nc1ccc(Cn2nnc3c(F)cccc32)cc1 [12e]	100
Cc1cc2nnn(Cc3ccc(N)cc3)c2cc1C [12b]	100

system: not given; assay: not given; details: not given

SMILES	melting point [°C]
COc1ccc(NC(=O)Nc2cccc(Cn3nnc4cc(C)c(C)cc43)c2)cc1	233 to 235
Cc1cc2nn(Cc3cccc(NC(=O)c4ccc(Br)cc4)c3)nc2cc1C	267 to 268
Cc1ccc(C(=O)Nc2cccc(Cn3nnc4cc(C)c(C)cc43)c2)cc1	211 to 212
N#Cc1ccc(C(=O)Nc2cccc(Cn3nnc4cc(Cl)c(Cl)cc43)c2)cc1	167 to 169
CCNC(=O)Nc1cccc(Cn2nnc3cc(Cl)c(Cl)cc32)c1	244 to 245
CCC(=O)Nc1cccc(Cn2nnc3cc(Cl)c(Cl)cc32)c1 [36a]	145 to 146
Cc1cc2nnn(Cc3cccc(NC(=O)c4ccc(Br)cc4)c3)c2cc1C	237 to 238
CCCNC(=O)Nc1cccc(Cn2nc3cc(C)c(C)cc3n2)c1	204 to 206
Cc1cc2nnn(Cc3cccc(NC(=O)Nc4ccc(Cl)cc4)c3)c2cc1C	249 to 251
CC(=O)Nc1ccc(Cn2nnc3cc(F)c(F)cc32)cc1	242 to 243
Cc1cc2nnn(Cc3cccc(NC(=O)Nc4ccc(F)cc4)c3)c2cc1C	245 to 247
O=C(Nc1ccc(Cn2nnc3cc(Cl)c(Cl)cc32)cc1)NC1CCCCC1	130 to 132
O=C(Nc1ccc(Cn2nnc3cc(F)c(F)cc32)cc1)c1ccc([N+](=O)[O-])cc1	240 to 242
Cc1cc2nnn(Cc3cccc(NC(=O)c4ccc(F)cc4)c3)c2cc1C	143 to 147
COc1ccc(C(=O)Nc2ccc(Cn3nnc4ccccc43)cc2)cc1 [86c]	172 to 174
CCNC(=O)Nc1ccc(Cn2nnc3cc(Cl)c(Cl)cc32)cc1	211 to 212
CC(=O)Nc1cccc(Cn2nnc3cc(C)c(C)cc32)c1	198 to 200
Cc1cc2nnn(Cc3cccc(NC(=O)NC(C)(C)C)c3)c2cc1C	189 to 191
COc1cc(C(=O)Nc2cccc(Cn3nnc4cc(C)c(C)cc43)c2)cc(OC)c1OC [51b]	160 to 162
Cc1cc2nnn(Cc3ccc(NC(=O)c4ccc([N+](=O)[O-])cc4)cc3)c2cc1C	192 to 194
O=C(Nc1ccc(Cn2nnc3cc(F)c(F)cc32)cc1)NC1CCCCC1	203 to 204
CCC(=O)Nc1ccc(Cn2nnc3cc(F)c(F)cc32)cc1	240 to 242
O=C(Nc1cccc(Cn2nnc3cc(Cl)c(Cl)cc32)c1)NC1CCCC1	231 to 232
CC(=O)Nc1cccc(Cn2nc3cc(C)c(C)cc3n2)c1	184 to 187
COc1cc(C(=O)Nc2ccc(Cn3nnc4ccccc43)cc2)cc(OC)c1OC	147 to 149
Cc1ccc(C(=O)Nc2ccc(Cn3nnc4cc(F)c(F)cc43)cc2)cc1	297 to 299

SMILES	melting point [°C]
CCCNC(=O)Nc1ccc(Cn2nnc3cc(Cl)c(Cl)cc32)cc1	213 to 214
Nc1ccc(C(=O)Nc2cccc(Cn3nnc4cc(Cl)c(Cl)cc43)c2)cc1	101 to 102
O=C(Nc1cccc(Cn2nnc3cc(Cl)c(Cl)cc32)c1)c1ccc(C(F)(F)F)cc1	211 to 213
O=C(Nc1cccc(Cn2nnc3cc(Cl)c(Cl)cc32)c1)c1ccc(F)cc1	184 to 186
Nc1ccc(Cn2nnc3c(F)cccc32)cc1 [12e]	164 to 167
CCCNC(=O)Nc1cccc(Cn2nnc3cc(Cl)c(Cl)cc32)c1	> 300
COc1ccc(C(=O)Nc2cccc(Cn3nnc4cc(Cl)c(Cl)cc43)c2)cc1	221 to 223
O=C(Nc1cccc(Cn2nnc3cc(Cl)c(Cl)cc32)c1)c1ccc([N+](=O)[O-])cc1	217 to 218
CCCC(=O)Nc1ccc(Cn2nnc3c(F)cccc32)cc1	215 to 216
O=C(Nc1ccc(Cn2nnc3cc(F)c(F)cc32)cc1)c1ccc(F)cc1	241 to 242
CCC(=O)Nc1ccc(Cn2nnc3ccccc32)cc1	192 to 195
CCNC(=O)Nc1ccc(Cn2nnc3cc(F)c(F)cc32)cc1	286 to 287
CCC(=O)Nc1ccc(Cn2nnc3c(F)cccc32)cc1	244 to 246
CCCCNC(=O)Nc1ccc(Cn2nnc3cc(F)c(F)cc32)cc1	193 to 194
CCCNC(=O)Nc1ccc(Cn2nnc3cc(F)c(F)cc32)cc1	286 to 287
CCC(C)NC(=O)Nc1cccc(Cn2nnc3cc(C)c(C)cc32)c1 (stereo not shown)	202 to 204
Cc1cc2nnn(Cc3cccc(NC(=O)c4ccc(C(F)(F)F)cc4)c3)c2cc1C	201 to 203
Cc1cc2nnn(Cc3cccc(NC(=O)NC4CCCCC4)c3)c2cc1C	233 to 235
Cc1cc2nn(Cc3cccc(NC(=O)c4ccc([N+](=O)[O-])cc4)c3)nc2cc1C	184 to 187
CCCCNC(=O)Nc1cccc(Cn2nnc3cc(Cl)c(Cl)cc32)c1	232 to 233
O=C(Nc1ccc(Cn2nnc3cc(F)c(F)cc32)cc1)c1ccc(Br)cc1	235 to 236
CCCCNC(=O)Nc1cccc(Cn2nnc3cc(C)c(C)cc32)c1	195 to 197
CC(=O)Nc1ccc(Cn2nnc3c(F)cccc32)cc1	233 to 234
Cc1ccc(C(=O)Nc2cccc(Cn3nnc4cc(Cl)c(Cl)cc43)c2)cc1	199 to 200
Cc1cc2nn(Cc3cccc(NC(=O)NC4CCCCC4)c3)nc2cc1C	299 to 300
CCC(=O)Nc1cccc(Cn2nnc3cc(C)c(C)cc32)c1	155 to 157

SMILES	melting point [°C]
Cc1cc2nnn(Cc3ccc(N)cc3)c2cc1C [12b]	184 to 186
O=C(Nc1ccc(Cn2nnc3c(F)cccc32)cc1)c1ccccc1	214 to 217
CCCNC(=O)Nc1ccc(Cn2nnc3ccccc32)cc1	165 to 167
CCC(=O)Nc1cccc(Cn2nc3cc(C)c(C)cc3n2)c1	178 to 182
O=C(Nc1ccc(Cn2nnc3cc(F)c(F)cc32)cc1)c1ccc(Cl)cc1	263 to 264
O=C(Nc1ccc(Cn2nnc3c(F)cccc32)cc1)c1ccc([N+](=O)[O-])cc1	272 to 274
O=C(Nc1ccc(Cn2nnc3ccccc32)cc1)NC1CCCCC1	141 to 143
Cc1cc2nnn(Cc3cccc(NC(=O)NC4CCCC4)c3)c2cc1C	290 to 292
CCNC(=O)Nc1cccc(Cn2nnc3cc(C)c(C)cc32)c1	271 to 273
CCNC(=O)Nc1cccc(Cn2nc3cc(C)c(C)cc3n2)c1	218 to 219
Cc1cc2nn(Cc3cccc(NC(=O)NC4CCCC4)c3)nc2cc1C	298 to 299
CCCNC(=O)Nc1cccc(Cn2nnc3cc(C)c(C)cc32)c1	189 to 191
CCCCNC(=O)Nc1ccc(Cn2nnc3cc(Cl)c(Cl)cc32)cc1	216 to 217
Cc1cc2nnn(Cc3cccc(NC(=O)c4ccc(Cl)cc4)c3)c2cc1C [53b]	227 to 229
O=C(Nc1ccc(Cn2nnc3ccccc32)cc1)c1ccc([N+](=O)[O-])cc1	245 to 246
COc1cc(NC(=O)Nc2cccc(Cn3nnc4cc(C)c(C)cc43)c2)cc(OC)c1OC	206 to 208
O=C(Nc1ccccc1)Nc1ccc(Cn2nnc3ccccc32)cc1	159 to 161
COc1ccc(C(=O)Nc2ccc(Cn3nnc4c(F)cccc43)cc2)cc1	266 to 268
Cc1cc2nnn(Cc3cccc(NC(=O)c4ccc(C#N)cc4)c3)c2cc1C	242 to 247
Cc1cc2nn(Cc3cccc(NC(=O)c4ccc(Cl)cc4)c3)nc2cc1C	246 to 247
COc1ccc(C(=O)Nc2cccc(Cn3nnc4cc(C)c(C)cc43)c2)cc1	203 to 206
Cc1cc2nnn(Cc3cccc(NC(=O)c4ccc([N+](=O)[O-])cc4)c3)c2cc1C	227 to 230
O=C(Nc1ccc(Cn2nnc3ccccc32)cc1)c1ccc(OC(F)(F)F)cc1	229 to 231
COc1ccc(C(=O)Nc2ccc(Cn3nnc4cc(C)c(C)cc43)cc2)cc1	196 to 198

system: not listed separately; assay: Cytotoxicity in mock-infected Vero-76 monolayers; details: African green monkey (Cercopithecus aethiops), Vero-76 cell monolayers, mock-infected

SMILES	CC50 [µM]
COc1ccc(C(=O)Nc2ccc(Cn3nnc4ccccc43)cc2)cc1 [86c]	85
Cc1cc(CCCOc2c(C)cc(-c3noc(C(F)(F)F)n3)cc2C)on1 [Plec, pleconaril, reference compound]	77 ± 6.8
Nc1nc2c(ncn2COCCO)c(=O)[nH]1 [ACG, acycloguanosine, reference compound]	> 100

system: HSV-1; assay: microbe, parasite or virus in culture; type: cell-based, human herpesvirus 1; details: Human alphaherpesvirus 1, Vero 76, read-out: HSV-1 EC50

SMILES	EC50 [µM]
Nc1nc2c(ncn2COCCO)c(=O)[nH]1 [ACG, acycloguanosine, reference compound]	2.4 ± 0.6

system: not listed separately; assay: Cytotoxicity in mock-infected MDBK cells (MTT); details: cattle (Bos taurus)

SMILES	CC50 [µM]
NC(=O)c1ncn([C@@H]2O[C@H](CO)[C@@H](O)[C@H]2O)n1 [Ribav, ribavirin, reference compound]	52

same assay, conditions: cattle (Bos taurus), mock-infected

SMILES	CC50 [µM]
COc1ccc(C(=O)Nc2ccc(Cn3nnc4ccccc43)cc2)cc1 [86c]	87
C[C@@]1(O)[C@H](O)[C@@H](CO)O[C@H]1n1cnc2c(=O)[nH]c(N)nc21 [NM108, 2′-C-methyl-guanosine, reference compound]	> 100
NC(=O)c1ncn([C@@H]2O[C@H](CO)[C@@H](O)[C@H]2O)n1 [Ribav, ribavirin, reference compound]	35

system: Sb-1; assay: microbe, parasite or virus in culture; type: cell-based, human enterovirus C (poliovirus type-1); details: Enterovirus C, Vero 76, read-out: Sb-1 EC50

SMILES	EC50 [µM]
Cc1cc(CCCOc2c(C)cc(-c3noc(C(F)(F)F)n3)cc2C)on1 [Plec, pleconaril, reference compound]	2 ± 0.62
